IC50 data for 16 compounds are collected here from US10550105B2 (Ribon Therapeutics Inc., priority 2018, dated 2020).

PARP7, sequence (Q7Z3E1 whole entry): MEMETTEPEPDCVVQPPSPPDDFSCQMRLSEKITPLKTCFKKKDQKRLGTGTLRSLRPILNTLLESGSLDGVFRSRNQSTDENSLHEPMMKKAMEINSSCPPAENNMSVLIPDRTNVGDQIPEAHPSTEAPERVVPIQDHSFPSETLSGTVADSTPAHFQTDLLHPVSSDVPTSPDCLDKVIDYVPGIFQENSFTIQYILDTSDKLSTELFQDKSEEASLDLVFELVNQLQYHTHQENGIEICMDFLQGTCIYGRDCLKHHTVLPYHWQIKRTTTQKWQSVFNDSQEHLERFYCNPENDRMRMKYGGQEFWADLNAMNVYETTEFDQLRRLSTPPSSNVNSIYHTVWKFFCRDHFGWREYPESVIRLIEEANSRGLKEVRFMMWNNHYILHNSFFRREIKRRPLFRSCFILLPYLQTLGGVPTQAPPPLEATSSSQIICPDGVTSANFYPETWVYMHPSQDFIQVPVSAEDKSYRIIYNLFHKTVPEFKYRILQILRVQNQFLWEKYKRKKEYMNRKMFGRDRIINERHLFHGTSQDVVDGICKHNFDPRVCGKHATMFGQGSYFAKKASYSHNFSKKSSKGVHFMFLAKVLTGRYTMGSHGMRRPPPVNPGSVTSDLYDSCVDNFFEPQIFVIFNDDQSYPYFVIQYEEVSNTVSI

This assay addresses PARP7 (Homo sapiens (Human), UniProt Q7Z3E1). The assay can be described thus: Enzymatic assay for inhibition of PARP7: TR-FRET displacement of biotinylated Probe A from the TIPARP active site. The conditions noted are these: Table A-1. In kind it is binding. In short, it runs like this:
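Compound dose-response series were incubated with TIPARP and biotinylated Probe A, with a final 30 min step at 25 °C. TR-FRET was read at 320 nm excitation, 615/665 nm emission and 90 μs delay, using the 665/615 ratio to measure complex formation. % inhibition was fitted with a floating or fixed (1) Hill coefficient.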
`O=c1[nH]ncc(N2Cc3ccc(OC4CCNC4)cc3C2)c1C(F)(F)F` (stereo not shown) [Example 218, 5-(5-(Pyrrolidin-3-yloxy)isoindolin-2-yl)-4-(trifluoromethyl)pyridazin-3(2H)-one]: the concentration for half-maximal inhibition (IC50) is less than 100 nM. The result for `O=c1[nH]ncc(N2Cc3ccc(O)cc3C2)c1C(F)(F)F` [Example 219, 5-(5-Hydroxyisoindolin-2-yl)-4-(trifluoromethyl)pyridazin-3(2H)-one] reads less than 100 nM; that for `O=c1[nH]ncc(N2Cc3cccc(OCCN4CCNCC4)c3C2)c1Cl` [Example 220, 4-Chloro-5-(4-(2-(piperazin-1-yl)ethoxy)isoindolin-2-yl)pyridazin-3(2H)-one], 100 to 1000 nM. `NCc1cccc2c1CN(c1cn[nH]c(=O)c1C(F)(F)F)C2` [Example 221, 5-(4-(Aminomethyl)isoindolin-2-yl)-4-(trifluoromethyl)pyridazin-3(2H)-one] showed a 50% inhibitory concentration (IC50) of no less than 1000 nM. `O=c1[nH]ncc(N2Cc3cccc(OC[C@H]4CCCO4)c3C2)c1C(F)(F)F` [Example 223, (R)-5-(4-((Tetrahydrofuran-2-yl)methoxy)isoindolin-2-yl)-4-(trifluoromethyl)pyridazin-3(2H)-one] came in with an IC50 of less than 100 nM.

The compound `CC(=O)N(C)CCOc1cccc2c1CN(c1cn[nH]c(=O)c1C(F)(F)F)C2` [Example 224, N-Methyl-N-(2-((2-(6-oxo-5-(trifluoromethyl)-1,6-dihydropyridazin-4-yl)isoindolin-4-yl)oxy)ethyl)acetamide] gave an IC50 of less than 100 nM. In the case of `CC(=O)N1CCC(Oc2cccc3c2CN(c2cn[nH]c(=O)c2C(F)(F)F)C3)CC1` [Example 225, 5-(4-((1-Acetylpiperidin-4-yl)oxy)isoindolin-2-yl)-4-(trifluoromethyl)pyridazin-3(2H)-one] it was less than 100 nM. Compound `CN1CCN(CCOc2cccc3c2CN(c2cn[nH]c(=O)c2C(F)(F)F)C3)CC1` [Example 226, 5-(4-(2-(4-Methylpiperazin-1-yl)ethoxy)isoindolin-2-yl)-4-(trifluoromethyl)pyridazin-3(2H)-one] had a concentration for half-maximal inhibition (IC50) of less than 100 nM. `O=c1[nH]ncc(N2Cc3cccc(OCCN4CCNCC4)c3C2)c1C(F)(F)F` [Example 227, 5-(4-(2-(Piperazin-1-yl)ethoxy)isoindolin-2-yl)-4-(trifluoromethyl)pyridazin-3(2H)-one] yielded an IC50 of less than 100 nM. In the case of `CC(=O)N1CCN(CCOc2cccc3c2CN(c2cn[nH]c(=O)c2C(F)(F)F)C3)CC1` [Example 228, 5-(4-(2-(4-Acetylpiperazin-1-yl)ethoxy)isoindolin-2-yl)-4-(trifluoromethyl)pyridazin-3(2H)-one] it was less than 100 nM; in that of `COCCOc1ccc2c(c1)CN(c1cn[nH]c(=O)c1C(F)(F)F)C2` [Example 229, 5-(5-(2-Methoxyethoxy)isoindolin-2-yl)-4-(trifluoromethyl)pyridazin-3(2H)-one], less than 100 nM. In the case of `CC(=O)N1CCN(CCOc2cccc3c2CN(c2cn[nH]c(=O)c2Cl)C3)CC1` [Example 230, 5-(4-(2-(4-Acetylpiperazin-1-yl)ethoxy)isoindolin-2-yl)-4-chloropyridazin-3(2H)-one] it was 100 to 1000 nM. In the case of `NCC1c2ccccc2CN1c1cn[nH]c(=O)c1Cl` (stereo not shown) [Example 231, 5-(1-(Aminomethyl)isoindolin-2-yl)-4-chloropyridazin-3(2H)-one] it was no less than 1000 nM; in that of `O=c1[nH]ncc(N2Cc3cccc(Oc4ccncc4)c3C2)c1C(F)(F)F` [Example 232, 5-(4-(pyridin-4-yloxy)isoindolin-2-yl)-4-(trifluoromethyl)pyridazin-3(2H)-one trifluoroacetic acid], less than 100 nM; in that of `O=c1[nH]ncc(N2Cc3cccc(Oc4cccnc4)c3C2)c1C(F)(F)F` [Example 233, 5-(4-(Pyridin-3-yloxy)isoindolin-2-yl)-4-(trifluoromethyl)pyridazin-3(2H)-one], less than 100 nM. `COc1cc2c(cc1F)CN(c1cn[nH]c(=O)c1C(F)(F)F)C2` [Example 234, 5-(5-Fluoro-6-methoxyisoindolin-2-yl)-4-(trifluoromethyl)pyridazin-3(2H)-one] came in with a concentration for half-maximal inhibition (IC50) of less than 100 nM.
